Results taken from patent US5081131A, “Omega-((hetero)alkyl)benz(cd)-indol-2-amines” (American Cyanamid Company, priority 1988, dated 1992).

Key:
[1] = test system: thevetin-induced arrhythmia in guinea pigs; assay: Thevetin (cardiac glycoside)-induced arrhythmia in guinea pigs; format: in vivo, guinea pig; details: saline 22.91±0.5 minutes
Protocol: Male guinea pigs, weighing 300-500 g each, from Summit View Farms, Belvidere, N.J., were anesthetized by intraperitoneal adminstration of urethan at 1500 mg/kg. The animals were then restrained in a supine position. Electrocardiogram leads were attached to the four limbs and Lead II of the electrocardiogram was monitored.
The neck region was exposed and the jugular vein was cannulated. The test compounds were dissolved in saline and administered intravenously at the indicated doses, via a cannula which was then flushed with saline. Five minutes after the test compound was administered, thevetin dissolved in saline was administered by infusion through a cannula at a dose of 0.1 mg/kg/minute in a volume of 0.1 ml. The time until the P wave of the electrocardiogram disappeared was determined.

[2] = target: T1, thromboxane synthetase enzyme (Rattus norvegicus, UniProt P49430); assay: Thromboxane synthetase enzyme inhibition (TXB2 formation in washed platelets, RIA); format: cell-based, spontaneously hypertensive rat; details: 1×10^-4 Molar, SHR platelets, 10 min at 37° C.; for inhibition at 100 µM: read-out: % Inhibition (Thromboxane Synthetase Enzyme Inhibition)
T1 construct: endogenous in cells; host or cells: washed platelets from arterial blood of male Okamoto-Aoki spontaneously hypertensive rats (animals from Taconic Farms, Germantown, N.Y.)
T1 sequence (P49430 1-533): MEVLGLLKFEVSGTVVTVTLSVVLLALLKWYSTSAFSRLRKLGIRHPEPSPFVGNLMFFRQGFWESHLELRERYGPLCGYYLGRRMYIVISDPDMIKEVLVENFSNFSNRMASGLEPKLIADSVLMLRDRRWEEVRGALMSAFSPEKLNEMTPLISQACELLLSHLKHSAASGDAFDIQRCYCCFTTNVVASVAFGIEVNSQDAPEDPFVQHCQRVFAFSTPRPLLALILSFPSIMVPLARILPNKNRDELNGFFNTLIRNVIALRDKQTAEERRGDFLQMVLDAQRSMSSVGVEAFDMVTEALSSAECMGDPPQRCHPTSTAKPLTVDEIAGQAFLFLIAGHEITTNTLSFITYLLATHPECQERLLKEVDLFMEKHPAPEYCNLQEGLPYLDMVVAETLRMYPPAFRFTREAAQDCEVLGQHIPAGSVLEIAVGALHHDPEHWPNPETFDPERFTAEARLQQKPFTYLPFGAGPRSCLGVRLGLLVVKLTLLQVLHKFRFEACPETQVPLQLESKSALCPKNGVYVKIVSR

[3] = test system: spontaneously hypertensive rats; assay: Hypotensive activity in spontaneously hypertensive rats (MABP); format: in vivo, rat (Okamoto strain); details: SHR, gavage, two doses of 10 mg/kg or less 24 h apart, MABP at 28 h; average baseline 160±1.5 mm Hg
Procedure, shortened: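 Male 16-week Okamoto spontaneously hypertensive rats dosed by gavage in 2% starch at 10 mg/kg or less with 0.9% NaCl loading 25 ml/kg; identical dose without saline given 24 hours later. Mean arterial blood pressure measured 28 hours after first dose; 1 to 4 rats per compound.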

Row | SMILES | inhibition at 100 µM [2] [%] | Time (Minutes) Before Induced Arrhythmia ([1]; IV dose 30 mg/kg) [min] | Avg. MABP in mm Hg (No. of Rats) [3] [mm Hg] | Time (Minutes) Before Induced Arrhythmia ([1]; IV dose 10 mg/kg) [min] | % Inhibition (Thromboxane Synthetase Enzyme Inhibition) [2] [%] | Time (Minutes) Before Induced Arrhythmia ([1]; IV dose 20 mg/kg) [min]
1 | CC(CCNC1=Nc2ccc(Br)c3cccc1c23)n1ccnc1 (stereo not drawn) [6-Bromo-N-(3-(1H-imidazol-1-yl)butyl)benz(cd)indol-2-amine] | 100 | 34.7 | 120 |  |  | 
2 | Cl.Cl.c1cc2c3c(cccc3c1)C(NCCCn1ccnc1)=N2 [N-(3-(1H-imidazol-1-yl)propyl)benz(cd)indol-2-amine, dihydrochloride] |  |  | 87 | 48.5 | 85 | 
3 | O=C(O)/C=C/C(=O)O.c1cc2c3c(cccc3c1)C(NCCCCn1ccnc1)=N2 [N-(4-(1H-imidazol-1-yl)butyl)benz(cd)indol-2-amine, fumarate] |  |  | 106 | 31 | 100 | 
4 | O=C(O)/C=C/C(=O)O.c1cc2c3c(cccc3c1)C(NCCCCCCCCCCn1ccnc1)=N2 [N-(10-(1H-imidazol-1-yl)decyl)benz(cd)indol-2-amine, fumarate] | 65 |  | 124 | 34.2 |  | 
5 | Brc1ccc2c3c(cccc13)C(NCCCCCn1ccnc1)=N2 [6-Bromo-N-(5-(1H-imidazol-1-yl)pentyl)benz(cd)indol-2-amine] | 97 |  | 118 |  |  | 37

Second part, led by results:

Row | inhibition at 100 µM [2] [%] | SMILES | Time (Minutes) Before Induced Arrhythmia ([1]; IV dose 30 mg/kg) [min] | Avg. MABP in mm Hg (No. of Rats) [3] [mm Hg] | Time (Minutes) Before Induced Arrhythmia ([1]; IV dose 10 mg/kg) [min] | % Inhibition (Thromboxane Synthetase Enzyme Inhibition) [2] [%] | Time (Minutes) Before Induced Arrhythmia ([1]; IV dose 20 mg/kg) [min]
6 | 99 | c1cncc(CCNC2=Nc3cccc4cccc2c34)c1 [N-(2-(3-Pyridinyl)ethyl)benz(cd)indol-2-amine sesqui-fumarate] |  | 126 |  |  | 37
7 | 75 | c1ccc(C(CNC2=Nc3cccc4cccc2c34)(Cn2ccnc2)c2ccccc2)cc1 [N-(3-(1H-imidazol-1-yl)-2,2-diphenylpropyl)benz(cd)indol-2-amine] |  | 127 | 41 |  | 
